Results from patent EP0233105A1 (priority 1986, dated 1987).
Converted amounts (≈) assume the structure as drawn.

Key:
virus (Polio type I) = test: microbe, parasite or virus in culture; type: cell-based; details: for EC90 / EC99: Vero; for EC90: read-out: DE90; for EC99: read-out: DE 99; for IT90: therapeutic index = DL50 divided by DE90; for IT99: therapeutic index = DL50 divided by DE99
[1] = Lethal dose 50% (inhibition of growth of normal cells); type: cell-based; details: monkey; concentration inhibiting 50% of growth of normal VERO cells; no unit in table, test concentrations given in microgrammes/ml; read-out: DL50 (the source's name)
Description: On a par ailleurs déterminé la dose léthale 50% (DL50) la dose efficace 90% et 99% (DE90 et DE99) et l'indice thérapeutique 90 et 99 (IT90 et IT99) en utilisant les méthodes suivantes :
Les composés ont été préparés à la dose 1 mg/ml dans unvolume maximal de 0,1 ml de diméthyl- sulfoxyde et addition jusqu'à 12 ml d'un milieu de maintenance M-2. Les dilutions ont été effectuées avec le milieu de maintenance M-2.
La DL50 est la concentration à laquelle 50% de la croissance des cellules normales est inhibée. Pour cette détermination on a utilisé 5.10^5 cellules VERO en suspension dans 10 ml de milieu E199 additionné de 6% de sérum de veau (CS) et de gentamycine(20 microgrammes/ml). Les composés ont été ajoutés pour obtenir des concentrations finales de 200;100;-75;50;25;10;5;3;2;1;0,1 et 0,01 microgrammes/ml.

SMILES | EC90 (virus (Polio type I)) [µg/mL] | EC99 (virus (Polio type I)) [µg/mL] | IT90 (virus (Polio type I)) | IT99 (virus (Polio type I)) | CC50 [1] [µg/mL]
COc1ccc(-c2oc3c(OC)c(OC)c(OC)c(OC)c3c(=O)c2OC)cc1OC [3,3',4',5,6,7,8-heptaméthoxyflavone] | 20 (≈ 46.3 µM) | 25 | 10 | 8 | 200 (≈ 463 µM)
COc1ccc(-c2oc3cc(OC)c(OC)c(OC)c3c(=O)c2OC)cc1OC [3,3',4',5,6,7-hexaméthoxyflavone] | 100 (≈ 249 µM) | 200 | 2 | 1 | 200 (≈ 497 µM)
COc1ccc(-c2oc3c(OC)c(OC)c(OC)c(O)c3c(=O)c2OC)cc1OC [3,3',4',6,7,8-hexaméthoxy-5-hydroxyflavone] | 20 (≈ 47.8 µM) | 25 | 10 | 8 | 200 (≈ 478 µM)
COc1ccc(-c2oc3cc(O)c(OC)c(O)c3c(=O)c2OC)cc1 [3,4',6-triméthoxy-5,7-dihydroxyflavone] | 1 (≈ 2.9 µM) | 10 | 50 | 5 | 50 (≈ 145 µM)
COc1ccc(-c2oc3ccc(OC)cc3c(=O)c2OC)cc1 [3,4',6-triméthoxyflavone] | 2 (≈ 6.4 µM) | 50 | 50 | 2 | 100 (≈ 320 µM)
COc1ccc(-c2oc3ccc(O)cc3c(=O)c2OC)cc1 [3,4'-diméthoxy-6-hydroxyflavone] | 100 (≈ 335 µM) | 200 | 2 | 1 | 200 (≈ 670 µM)
COc1c(-c2ccc(O)cc2)oc2cccc(OC)c2c1=O [3,5-diméthoxy-4'-hydroxyflavone] | 5 (≈ 16.8 µM) | 10 | 30 | 15 | 150 (≈ 503 µM)
COc1cc2oc(-c3ccc(O)cc3)c(OC)c(=O)c2c(O)c1OC [3,6,7-triméthoxy-4',5-dihydroxyflavone] | 0.5 (≈ 1.45 µM) | 5 | 200 | 20 | 100 (≈ 290 µM)
COc1c(O)cc2oc(-c3ccc(O)cc3)c(OC)c(=O)c2c1O [3,6-diméthoxy-4',5,7-trihydroxyflavone] | 0.5 (≈ 1.51 µM) | 1 | 40 | 20 | 20 (≈ 60.6 µM)
COc1ccc2oc(-c3ccc(O)cc3)c(OC)c(=O)c2c1 [3,6-diméthoxy-4'-hydroxyflavone] | 7 (≈ 23.5 µM) | 25 | 29 | 8 | 200 (≈ 670 µM)
COc1ccc2c(=O)c(OC)c(-c3ccc(O)cc3)oc2c1 [3,7-diméthoxy-4'-hydroxyflavone] | 1 (≈ 3.35 µM) | 5 | 25 | 5 | 25 (≈ 83.8 µM)
COc1c(-c2ccc(O)cc2)oc2c(OC)cccc2c1=O [3,8-diméthoxy-4'-hydroxyflavone] | 10 (≈ 33.5 µM) | 20 | 2,5 | 1,2 | 25 (≈ 83.8 µM)
COc1c(-c2ccc(O)cc2)oc2ccc(O)cc2c1=O [3-méthoxy-4',6-dihydroxyflavone] | 0.5 (≈ 1.76 µM) | 2 | 6 | 1,5 | 3 (≈ 10.6 µM)
COc1c(-c2ccc(OCc3ccccc3)cc2)oc2ccccc2c1=O [3-méthoxy-4'-benzyloxyflavone] | 30 (≈ 83.7 µM) | 100 | 3,3 | 1 | 100 (≈ 279 µM)
COc1c(-c2ccc(Cl)cc2)oc2cc(C)ccc2c1=O [3-méthoxy-4'-chloro-7-méthylflavone] | 10 (≈ 33.3 µM) | 20 | 1 | 0.5 | 10 (≈ 33.3 µM)
COc1c(-c2ccc(O)cc2)oc2ccc(Cl)cc2c1=O [3-méthoxy-4'-hydroxy-6-chloroflavone] | 2 (≈ 6.61 µM) | 6 | 50 | 17 | 100 (≈ 330 µM)
COc1c(-c2ccc(O)cc2)oc2ccc(C)cc2c1=O [3-méthoxy-4'-hydroxy-6-methylflavone] | 1 (≈ 3.54 µM) | 5 | 75 | 15 | 75 (≈ 266 µM)
COc1c(-c2ccc(O)cc2)oc2cc(Cl)ccc2c1=O [3-méthoxy-4'-hydroxy-7-chloroflavone] | 5 (≈ 16.5 µM) | 7 | 20 | 14,3 | 100 (≈ 330 µM)
COc1c(-c2ccc(O)cc2)oc2cc(F)ccc2c1=O [3-méthoxy-4'-hydroxy-7-fluoroflavone] | 1 (≈ 3.49 µM) | 6 | 20 | 3,2 | 20 (≈ 69.9 µM)
COc1c(-c2ccc(O)cc2)oc2cc(C)ccc2c1=O [3-méthoxy-4'-hydroxy-7-méthylflavone] | 0.5 (≈ 1.77 µM) | 2 | 50 | 12,5 | 25 (≈ 88.6 µM)
COc1c(-c2ccc(O)cc2)oc2ccccc2c1=O [3-méthoxy-4'-hydroxyflavone] | 3 (≈ 11.2 µM) | 6 | 3,3 | 1.66 | 10 (≈ 37.3 µM)
